System: rat dorsal root ganglion neurons
Test: Stimulativeness of diquafosol sodium to peripheral nerves, intracellular calcium fluorescence (FLIPR Calcium 6)
Format: cell-based
Method: The stimulativeness of diquafosol sodium to peripheral nerves in the coexistence of PVP was examined.
Cultured peripheral nerve cells (rat dorsal root ganglion neurons, purchased from Lonza Japan Ltd.) were incubated in a buffer solution (FLIPR Calcium 6 Assay Kit, Molecular Devices, LLC.) including intracellular fluorescent calcium indicator dyes. 40% of the total buffer solution was replaced with each of the aforementioned formulation solutions. The non-stimulation group and the stimulated control group were treated with the buffer solutions instead of the formulation solutions in the same manner. After allowing to stand at room temperature, the fluorescence measurement of the calcium indicator dyes with an elapse of time was started by using a fluorescent plate reader. Diquafosol sodium (final concentration: 0.3%) was added after 60 seconds from the start, and the measurement of fluorescence intensity was continued.
The maximum fluorescence intensity (RFUmax) after addition of diquafosol sodium was calculated relative to the fluorescence intensity (RFU) immediately before the addition as 100%.

SMILES: O=c1ccn([C@@H]2O[C@H](COP(=O)([O-])OP(=O)([O-])OP(=O)([O-])OP(=O)([O-])OC[C@H]3O[C@@H](n4ccc(=O)[nH]c4=O)[C@H](O)[C@@H]3O)[C@@H](O)[C@H]2O)c(=O)[nH]1.[Na+].[Na+].[Na+].[Na+] [diquafosol sodium, diquafosol tetrasodium salt]
- fluorescence intensity / signal of intracellular calcium ions after addition of diquafosol sodium (in words) (peripheral nerve cells exposed to diquafosol sodium 0.3%, with or without formulation solution): rapidly increased
- maximum fluorescence intensity (RFUmax) after addition of diquafosol sodium (stimulated control group: buffer solution instead of formulation solution, diquafosol sodium final concentration 0.3%, RFU before addition as 100%): ≥ 103.5%
